According to patent US20260274832A1, “COMPOUNDS AND THEIR USE IN TREATING CANCER” (ASTRAZENECA AB, priority 2023, published 2026):

Legend:
[1] = biological target: T1, AR (L702H) in LNCaP cells (Homo sapiens, UniProt P10275, L702H/T878A); assay: LNCaP Androgen Receptor L702H Imaging Assay (LNCaP cells engineered by CRISPR/Cas9); format: cell-based; settings: LNCaP cells with AR L702H mutation, 24 h incubation; for DC50: concentration giving 50% of maximum degradation of AR (L702H) per curve fit; for LNCaP AR (L702H) Degradation Dmax / Dmax: maximum degradation observed, normalized as % of positive control; for Dmax: LNCaP
T1 construct: engineered to introduce the mutation L702H into the AR gene using CRISPR/Cas9; endogenous in cells; host or cells: LNCaP cells edited by CRISPR/Cas9 at the AR gene
T1 sequence (P10275 whole entry L702H/T878A): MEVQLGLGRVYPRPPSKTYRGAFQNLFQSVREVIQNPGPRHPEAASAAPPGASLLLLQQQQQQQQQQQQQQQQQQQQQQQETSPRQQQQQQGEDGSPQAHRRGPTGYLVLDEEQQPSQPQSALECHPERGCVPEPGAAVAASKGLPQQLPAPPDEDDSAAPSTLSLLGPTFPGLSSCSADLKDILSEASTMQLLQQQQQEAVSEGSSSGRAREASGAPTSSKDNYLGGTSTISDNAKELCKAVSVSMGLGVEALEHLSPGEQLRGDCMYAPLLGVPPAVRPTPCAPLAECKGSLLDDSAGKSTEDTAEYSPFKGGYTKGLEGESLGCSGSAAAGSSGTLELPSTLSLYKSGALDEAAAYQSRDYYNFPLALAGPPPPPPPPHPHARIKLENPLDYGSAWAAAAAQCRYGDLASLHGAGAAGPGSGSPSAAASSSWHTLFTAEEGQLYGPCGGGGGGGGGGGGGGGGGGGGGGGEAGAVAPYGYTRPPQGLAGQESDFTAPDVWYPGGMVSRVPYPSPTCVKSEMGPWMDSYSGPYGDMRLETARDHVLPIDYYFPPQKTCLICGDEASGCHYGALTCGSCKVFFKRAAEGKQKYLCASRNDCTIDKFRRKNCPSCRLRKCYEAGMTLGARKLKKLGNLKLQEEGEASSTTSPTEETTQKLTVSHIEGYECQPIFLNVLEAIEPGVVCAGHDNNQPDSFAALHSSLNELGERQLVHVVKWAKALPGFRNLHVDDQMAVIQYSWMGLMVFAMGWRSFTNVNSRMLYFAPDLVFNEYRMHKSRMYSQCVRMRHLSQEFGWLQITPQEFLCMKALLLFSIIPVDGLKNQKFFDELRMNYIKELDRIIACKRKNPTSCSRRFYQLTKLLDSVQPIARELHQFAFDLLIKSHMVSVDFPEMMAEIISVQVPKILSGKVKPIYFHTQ
T1 sequence (Q96SW2 whole entry partner): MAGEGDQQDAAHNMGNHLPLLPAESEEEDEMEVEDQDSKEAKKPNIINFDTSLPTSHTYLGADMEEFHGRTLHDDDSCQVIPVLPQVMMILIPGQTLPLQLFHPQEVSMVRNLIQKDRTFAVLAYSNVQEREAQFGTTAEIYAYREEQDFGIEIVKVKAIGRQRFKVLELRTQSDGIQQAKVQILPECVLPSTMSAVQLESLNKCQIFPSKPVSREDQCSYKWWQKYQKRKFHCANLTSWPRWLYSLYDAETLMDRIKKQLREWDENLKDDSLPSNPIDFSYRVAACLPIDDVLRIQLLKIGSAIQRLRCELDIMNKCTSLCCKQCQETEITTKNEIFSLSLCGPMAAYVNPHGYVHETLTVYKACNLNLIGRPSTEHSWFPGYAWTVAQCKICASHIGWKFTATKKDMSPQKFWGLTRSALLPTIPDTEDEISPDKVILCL
Method: (§1) All work was performed in a sterile tissue culture hood up to the point of cell fixation. LNCaP cells were cultured at 6-8×10^6 per T175 flask and split every 3-4 days. Medium: RPMI (R7638, VWR Sigma) containing 10% FCS and 1% glutamine. Cells were plated in black wall transparent bottom plates at a density of 12,000 cells (Cedex™ Cell counter, Beckmann & Coulter), 40 μL per well, using a Multidrop (ThermoFisher).
(§2) Cells were dosed with test compound diluted in DMSO using an Echo 555/655™ (Labcyte) and the final concentration of DMSO in the well was 0.3%. A neutral control (DMSO) and a positive AR degrader control at 3 μM (a prior art AR PROTAC) were included. The Echo uses acoustic technology to perform direct microplate-to-microplate transfers of DMSO compound solutions to assay plates. The system can be programmed to transfer volumes as low as 2.5 nL in multiple increments between microplates and in so doing generates a serial dilution of compound in the assay plate which is then back-filled to normalise the DMSO concentration across the dilution range. Compounds were dispensed as a 12 point dose response with indicated concentrations. The plates were incubated at 37° C./5% CO2 for 24 h and then fixed and stained as below. 40 μL of 8% paraformaldehyde solution (v/v) in phosphate buffered saline (PBS) was added on top of the media already in the well using a Multidrop to fix plates giving a final concentration of 4% PFA (v/v) for 20-30 minutes (keep in fume hood to minimise PFA exposure). After 20-30 mins, the plates were washed with 3×PBS using a BioTek washer in a fume hood. A shake out of remaining volume in the well was performed to ensure best removal of remaining PBS. At this plates could be stored in PBS after washing for at least 3 days at 4° C., if so, PBS was removed by the BioTek before continuing with the next step.
(§3) The cells were incubated with a Mouse monoclonal Anti-AR antibody AR441 (DAKO M3562) (1:1000), diluted in modified blocking buffer (PBS+1% BSA+0.1% TritonX); 15 μL/well for 2 h at RT. The plates were then washed with 3×PBS using a BioTek washer. A shake out of remaining volume in the well was performed to ensure best removal of remaining PBS. Cells were then incubated with Goat anti-mouse secondary antibody 488 (Invitrogen A11001) (1:500) and nuclear stain, DRAQ5 (Abcam Ab108410) (1:2000) diluted in modified blocking buffer for 45 mins at room temperature 15 μL/well. Plates are then washed with 3×PBS using a BioTek washer, without final aspiration, and sealed with black plate seals. Plates could be stored after staining for three days at 4° C. before read if required.
(§4) Plates are read using a Cellomics Cellinsight to measure the Androgen Receptor level in each well. The data is exported into Genedata to perform curve fitting analysis. All data are normalized as % of positive control and the BellFit method automatically determines the correct fit method based on the presence of hook effect, choosing the BellFit when there is a hook and HillFit when there is no hook. Down-regulation of AR is expressed as a DC50 value and determined by calculation of the concentration of compound that is required to give 50% of maximum degradation of AR as per the curve fit for that compound. The maximum degradation observed for each compound is expressed as Dmax. The AR degradation data for compounds is shown in the table below and may be a result from a single experiment or an average of two or more experiments.
At this stage, anti-androgen therapy is largely ineffective due to AR amplification, overexpression or point mutation. One of the point mutations observed in patient populations is L702H in the AR Ligand Binding Domain. LNCAP cells have been engineered to introduce the mutation L702H into the AR gene using CRISPR/Cas9. The previously described imaging-based AR assay will monitor nuclear AR (L702H) levels in these cells to identify compounds that regulate AR (L702H). […]

[2] = biological target: T2, AR (AR-full length) in LNCaP cells (Homo sapiens, UniProt P10275, T878A); assay: LNCaP Androgen Receptor Imaging Assay (immunofluorescence of endogenous nuclear AR); format: cell-based; settings: 24 h incubation; for DC50: concentration giving 50% of maximum degradation of AR per curve fit, single experiment or average of two or more; for LNCaP AR Degradation Dmax / Dmax: maximum degradation observed, normalized as % of positive control (prior art AR PROTAC at 3 μM); for Dmax: LNCaP
T2 construct: the prostate cancer cell line LNCaP (expressing AR-full length); endogenous in cells; host or cells: LNCaP
T2 sequence (P10275 whole entry T878A): as the sequence (P10275 whole entry L702H/T878A) above, with H702L counted along it
T2 sequence (Q96SW2 whole entry partner): as the sequence (Q96SW2 whole entry partner) above
Method: This cell-based imaging assay uses immuno-fluorescence to measure endogenous nuclear AR staining in the prostate cancer cell line LNCaP (expressing AR-full length). The purpose of the assay is to identify compounds that regulate AR protein level according to the protocol laid out in the steps below.
as §1, §2, §3, §4

SMILES	DC50 [1]	DC50 [2]	LNCaP AR Degradation Dmax [2]	Dmax [1]	Dmax [2]	LNCaP AR (L702H) Degradation Dmax [1]
N#Cc1c[nH]c2c(N3CCCC(c4ccc(N5CCC(CN6CCC(n7ccc8c(N9CCC(=O)NC9=O)cccc87)CC6)CC5)cn4)C3)ccc(Cl)c12 (single isomer, unassigned) [Example 65, 4-Chloro-7-[(3R*)-3-{5-[4-({4-[4-(2,4-dioxo-1,3-diazinan-1-yl)-1H-indol-1-yl]piperidin-1-yl}methyl)piperidin-1-yl]pyridin-2-yl}piperidin-1-yl]-1H-indole-3-carbonitrile]	798 nM	9 nM	–	78%	96%	–
N#Cc1c[nH]c2c(N3CCCC(c4ccc(N5CCC(CN6CCC(n7ccc8c(N9CCC(=O)NC9=O)cccc87)CC6)CC5)cn4)C3)ccc(Cl)c12 (single isomer, unassigned) [Example 66, 4-Chloro-7-[(3S*)-3-{5-[4-({4-[4-(2,4-dioxo-1,3-diazinan-1-yl)-1H-indol-1-yl]piperidin-1-yl}methyl)piperidin-1-yl]pyridin-2-yl}piperidin-1-yl]-1H-indole-3-carbonitrile]	22 nM	10 nM	97%	–	–	94%
Cc1ccc(C2CCCN(c3ccc(OCCCCN4CCN(c5ccc6c(c5)CN(C5CCC(=O)NC5=O)C6=O)CC4)cc3)C2)c2[nH]cc(C#N)c12 (single isomer, unassigned) [Example 78, 7-{(3R*)-1-[4-(4-{4-[2-(2,6-dioxopiperidin-3-yl)-1-oxo-2,3-dihydro-1H-isoindol-5-yl]piperazin-1-yl}butoxy)phenyl]piperidin-3-yl}-4-methyl-1H-indole-3-carbonitrile]	3100 nM	1370 nM	70%	–	–	100%
Cc1ccc(C2CCCN(c3ccc(OCCCCN4CCN(c5ccc6c(c5)CN(C5CCC(=O)NC5=O)C6=O)CC4)cc3)C2)c2[nH]cc(C#N)c12 (single isomer, unassigned) [Example 79, 7-{(3S*)-1-[4-(4-{4-[2-(2,6-dioxopiperidin-3-yl)-1-oxo-2,3-dihydro-1H-isoindol-5-yl]piperazin-1-yl}butoxy)phenyl]piperidin-3-yl}-4-methyl-1H-indole-3-carbonitrile]	21 nM	9 nM	92%	–	–	79%
Cc1ccc(C2CCCN(c3cccc(OCCCCN4CCN(c5ccc6c(c5)CN(C5CCC(=O)NC5=O)C6=O)CC4)c3)C2)c2[nH]cc(C#N)c12 (single isomer, unassigned) [Example 80, 7-{(3R*)-1-[3-(4-{4-[2-(2,6-dioxopiperidin-3-yl)-1-oxo-2,3-dihydro-1H-isoindol-5-yl]piperazin-1-yl}butoxy)phenyl]piperidin-3-yl}-4-methyl-1H-indole-3-carbonitrile]	3100 nM	38 nM	–	100%	64%	–
Cc1ccc(C2CCCN(c3cccc(OCCCCN4CCN(c5ccc6c(c5)CN(C5CCC(=O)NC5=O)C6=O)CC4)c3)C2)c2[nH]cc(C#N)c12 (single isomer, unassigned) [Example 81, 7-{(3S*)-1-[3-(4-{4-[2-(2,6-dioxopiperidin-3-yl)-1-oxo-2,3-dihydro-1H-isoindol-5-yl]piperazin-1-yl}butoxy)phenyl]piperidin-3-yl}-4-methyl-1H-indole-3-carbonitrile]	3100 nM	> 3000 nM	–	–	–	100%

Further lines, with some results ahead:

DC50 [1]	DC50 [2]	LNCaP AR Degradation Dmax [2]	Dmax [1]	Dmax [2]	SMILES	LNCaP AR (L702H) Degradation Dmax [1]
12 nM	7 nM	105%	–	–	COc1nc(N2CCN(CC3CCN(c4ccc([C@@H]5CCCN(c6ccc(Cl)c7c(C#N)c[nH]c67)C5)cc4)CC3)CC2)cc2c1C(=O)N(C1CCC(=O)NC1=O)C2 (single isomer, unassigned) [Example 40, 4-Chloro-7-[(3S)-3-(4-{4-[(4-{2-[(3S*)-2,6-dioxopiperidin-3-yl]-4-methoxy-3-oxo-2,3-dihydro-1H-pyrrolo[3,4-c]pyridin-6-yl}piperazin-1-yl)methyl]piperidin-1-yl}phenyl)piperidin-1-yl]-1H-indole-3-carbonitrile]	106%
22 nM	31 nM	–	91%	90%	Cc1ccc(C2CCCN(c3ccc(N4CCC(CN5CCN(c6ccc7c(c6)CN(C6CCC(=O)NC6=O)C7=O)CC5)CC4)cc3)C2)c2[nH]cc(C#N)c12 (single isomer, unassigned) [Example 82, 7-[(3R*)-1-{4-[4-({4-[2-(2,6-dioxopiperidin-3-yl)-1-oxo-2,3-dihydro-1H-isoindol-5-yl]piperazin-1-yl}methyl)piperidin-1-yl]phenyl}piperidin-3-yl]-4-methyl-1H-indole-3-carbonitrile]	–
> 3000 nM	3100 nM	100%	–	–	Cc1ccc(C2CCCN(c3ccc(N4CCC(CN5CCN(c6ccc7c(c6)CN(C6CCC(=O)NC6=O)C7=O)CC5)CC4)cc3)C2)c2[nH]cc(C#N)c12 (single isomer, unassigned) [Example 83, 7-[(3S*)-1-{4-[4-({4-[2-(2,6-dioxopiperidin-3-yl)-1-oxo-2,3-dihydro-1H-isoindol-5-yl]piperazin-1-yl}methyl)piperidin-1-yl]phenyl}piperidin-3-yl]-4-methyl-1H-indole-3-carbonitrile]	–
10 nM	23 nM	–	99%	100%	COc1nc(N2CCN(CC3CCN(c4ccc(N5CCCC(c6ccc(Cl)c7c(C#N)c[nH]c67)C5)cc4)CC3)CC2)cc2c1C(=O)N(C1CCC(=O)NC1=O)C2 (single isomer, unassigned) [Example 91, 4-Chloro-7-[(3R*)-1-{4-[4-({4-[2-(2,6-dioxopiperidin-3-yl)-4-methoxy-3-oxo-2,3-dihydro-1H-pyrrolo[3,4-c]pyridin-6-yl]piperazin-1-yl}methyl)piperidin-1-yl]phenyl}piperidin-3-yl]-1H-indole-3-carbonitrile]	–
–	–	100%	–	–	COc1nc(N2CCN(CC3CCN(c4ccc(N5CCCC(c6ccc(Cl)c7c(C#N)c[nH]c67)C5)cc4)CC3)CC2)cc2c1C(=O)N(C1CCC(=O)NC1=O)C2 (single isomer, unassigned) [Example 92, 4-Chloro-7-[(3S*)-1-{4-[4-({4-[2-(2,6-dioxopiperidin-3-yl)-4-methoxy-3-oxo-2,3-dihydro-1H-pyrrolo[3,4-c]pyridin-6-yl]piperazin-1-yl}methyl)piperidin-1-yl]phenyl}piperidin-3-yl]-1H-indole-3-carbonitrile]	100%
